Measurements from publication PMC5613053 (Investigational New Drugs, 2017).

Experiments:
[1] = molecular target: FLT3 (Homo sapiens, UniProt P36888); assay: biochemical; details: read-out: Inhibition of kinase activity
Description: These assays were conducted according to the manufacturer’s instructions. […] TK-ELISA and MSA assays were used to conduct IC50 studies for FLT3, LTK, AXL, and c-KIT; the HTRF® KinEASE™-TK assay (Sceti Medical Labo, Tokyo, Japan) was performed according to the manufacturer’s protocol to assess the IC50 value of echinoderm microtubule-associated protein-like 4-ALK (EML4-ALK; three individual experiments for each kinase).

[2] = molecular target: T1, LTK (Homo sapiens, UniProt P29376); assay: Kinase inhibitory assay (TK-ELISA / off-chip MSA); format: biochemical
T1 construct: purchased Carna Biosciences, Inc

[3] = molecular target: T2, ALK (Homo sapiens, UniProt Q9UM73); assay: Tyrosine kinase panel (off-chip MSA); format: biochemical; details: 1 nM; single experiment
T2 construct: purchased Carna Biosciences, Inc
Description: (§1) Inhibitory assay for the panel of tyrosine kinases was conducted using off-chip MSA. Percentage inhibitions were determined in a single experiment

[4] = molecular target: T3, MER (Homo sapiens, UniProt Q12866); assay: Tyrosine kinase panel (off-chip MSA); format: biochemical; details: 5 nM; single experiment
T3 construct: purchased Carna Biosciences, Inc
Description: as §1

[5] = molecular target: T4, RET (Homo sapiens, UniProt P07949); assay: Tyrosine kinase panel (off-chip MSA); format: biochemical; details: 5 nM; single experiment
T4 construct: purchased Carna Biosciences, Inc
Description: as §1

[6] = molecular target: T5, ROS (Homo sapiens, UniProt P08922); assay: Tyrosine kinase panel (off-chip MSA); format: biochemical; details: 5 nM; single experiment
T5 construct: purchased Carna Biosciences, Inc
Description: as §1

[7] = molecular target: T6, TRKA (Homo sapiens, UniProt P04629); assay: Tyrosine kinase panel (off-chip MSA); format: biochemical; details: 5 nM; single experiment
T6 construct: purchased Carna Biosciences, Inc
Description: as §1

[8] = system: parental Ba/F3 cells in the presence of IL-3; assay: CellTiter-Glo cell viability, off-target; format: cell-based; details: Mus musculus, BaF3, 48 h; IL-3 present; 2 days of treatment; off-target inhibition; read-out: Cell growth inhibition IC50
Description: A detailed protocol is provided in the online resource.
The assay was performed in either triplicate or quadruplicate. […] The geometric mean was calculated from three individual experiments.

[9] = molecular target: T7, phosphorylated FLT3 (Homo sapiens, UniProt P36888, INS600HVDFREYEYD); assay: ELISA for phosphorylated FLT3 / total FLT3 in MV4-11 xenograft tumors; format: in vivo, mice
T7 construct: MV4–11 cells, which endogenously express FLT3-ITD; from tissue; host or cells: MV4-11 xenograft tumours from nude mice
T7 sequence (P36888 with tags, fused parts or gaps INS600HVDFREYEYD): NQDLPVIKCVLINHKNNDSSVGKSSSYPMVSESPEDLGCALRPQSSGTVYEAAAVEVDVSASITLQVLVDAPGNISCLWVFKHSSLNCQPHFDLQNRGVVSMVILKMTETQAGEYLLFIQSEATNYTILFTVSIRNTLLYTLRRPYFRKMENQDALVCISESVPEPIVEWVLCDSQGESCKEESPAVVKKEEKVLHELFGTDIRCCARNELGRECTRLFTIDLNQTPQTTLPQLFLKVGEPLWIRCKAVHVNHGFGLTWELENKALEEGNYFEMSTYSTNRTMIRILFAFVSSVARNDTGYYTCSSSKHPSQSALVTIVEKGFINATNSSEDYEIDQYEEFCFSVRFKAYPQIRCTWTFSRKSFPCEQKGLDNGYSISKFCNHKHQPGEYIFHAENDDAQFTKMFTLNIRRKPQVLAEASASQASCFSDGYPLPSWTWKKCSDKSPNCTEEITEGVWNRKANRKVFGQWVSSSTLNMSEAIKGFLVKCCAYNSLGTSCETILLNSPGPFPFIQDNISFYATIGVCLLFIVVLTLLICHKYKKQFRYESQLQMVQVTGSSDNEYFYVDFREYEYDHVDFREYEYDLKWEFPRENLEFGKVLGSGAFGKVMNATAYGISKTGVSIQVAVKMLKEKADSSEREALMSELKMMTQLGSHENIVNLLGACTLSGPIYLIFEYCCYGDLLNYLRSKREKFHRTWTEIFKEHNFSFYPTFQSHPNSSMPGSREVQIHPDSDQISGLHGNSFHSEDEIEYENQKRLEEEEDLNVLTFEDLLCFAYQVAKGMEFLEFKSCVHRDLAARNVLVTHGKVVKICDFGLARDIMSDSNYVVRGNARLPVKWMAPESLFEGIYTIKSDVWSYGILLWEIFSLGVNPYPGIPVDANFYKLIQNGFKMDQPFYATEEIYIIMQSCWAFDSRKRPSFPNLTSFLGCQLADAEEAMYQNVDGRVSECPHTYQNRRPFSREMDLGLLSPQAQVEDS
Description: Detailed protocols can be found in the online resource.
After 1 month, mice were divided into groups, with each group having approximately the same mean tumor volume.
MULTI-ARRAY® 96-well plates (Meso Scale Discovery, Rockville, MD) were coated with capture antibodies for phosphorylated FLT3 or total FLT3 (DuoSet® IC, R&D systems, Minneapolis, MN) and incubated overnight at 4°C with shaking. After washing with TBS-T, coated plates were blocked with 3% MSD® Blocker-A (Meso Scale Discovery) in TBS-T for 1 h at room temperature and then incubated with total protein lysates derived from MV4-11 xenografted tumors (500 μg/well for phosphorylated FLT3 and 20 μg/well for FLT3), overnight at 4°C. Following a wash step, anti-phosphotyrosine antibody (clone 4G10®, Biotin Conjugate [Millipore, Billerica, MA]) for the detection of phosphorylated FLT3 or the DuoSet® IC FLT3 detection antibody for total FLT3 were added to the plate and incubated for 2 h at room temperature. Wells were then washed and incubated with MSD® SULFO-TAG Labeled Streptavidin (Meso Scale Discovery) for 1 h at room temperature, followed by the addition of MSD® Read Buffer (Meso Scale Discovery). Electrochemiluminescent signals were measured using a SECTOR® imager (Meso Scale Discovery). Phosphorylation levels were normalized to total FLT3 levels in each group (3 mice/group except the point at 1 h after the administration of 1 mg/kg [2 mice]) relative to the mean value of the control group (5 mice/group). Data are reported as mean ± SEM.

[10] = Body weight in MV4–11 xenograft study; format: in vivo, mice; details: 1–10 mg/kg/day oral, 28 days; any tested dose
Description: (§2) Once tumor growth had been confirmed, mice xenografted with MV4–11 cells were monitored for 28 days; mice xenografted with Ba/F3 cells expressing FLT3 mutations were monitored for 7 days. Tumor diameter was measured using a caliper, and tumor volume was determined by calculating the volume of an ellipsoid using the formula: length × width^2 × 0.5. Body weight was measured using a standard balance. Data are expressed as mean ± SEM from n = 6 mice/group (MV4–11) and n = 5 mice/group (Ba/F3).
(§3) After tumor establishment, mice were divided into groups such that the mean tumor volume was approximately equal in each group.

[11] = system: Ba/F3 cells expressing FLT3-D835Y; assay: Ba/F3 FLT3-D835Y subcutaneous xenograft; format: in vivo, mice; details: up to 7 days
Description: as §2, §3

[12] = system: Ba/F3 cells expressing FLT3-ITD-D835Y; assay: Ba/F3 FLT3-ITD-D835Y subcutaneous xenograft; format: in vivo, mice; details: up to 7 days
Description: as §2, §3

T1 sequence (P29376 17-864): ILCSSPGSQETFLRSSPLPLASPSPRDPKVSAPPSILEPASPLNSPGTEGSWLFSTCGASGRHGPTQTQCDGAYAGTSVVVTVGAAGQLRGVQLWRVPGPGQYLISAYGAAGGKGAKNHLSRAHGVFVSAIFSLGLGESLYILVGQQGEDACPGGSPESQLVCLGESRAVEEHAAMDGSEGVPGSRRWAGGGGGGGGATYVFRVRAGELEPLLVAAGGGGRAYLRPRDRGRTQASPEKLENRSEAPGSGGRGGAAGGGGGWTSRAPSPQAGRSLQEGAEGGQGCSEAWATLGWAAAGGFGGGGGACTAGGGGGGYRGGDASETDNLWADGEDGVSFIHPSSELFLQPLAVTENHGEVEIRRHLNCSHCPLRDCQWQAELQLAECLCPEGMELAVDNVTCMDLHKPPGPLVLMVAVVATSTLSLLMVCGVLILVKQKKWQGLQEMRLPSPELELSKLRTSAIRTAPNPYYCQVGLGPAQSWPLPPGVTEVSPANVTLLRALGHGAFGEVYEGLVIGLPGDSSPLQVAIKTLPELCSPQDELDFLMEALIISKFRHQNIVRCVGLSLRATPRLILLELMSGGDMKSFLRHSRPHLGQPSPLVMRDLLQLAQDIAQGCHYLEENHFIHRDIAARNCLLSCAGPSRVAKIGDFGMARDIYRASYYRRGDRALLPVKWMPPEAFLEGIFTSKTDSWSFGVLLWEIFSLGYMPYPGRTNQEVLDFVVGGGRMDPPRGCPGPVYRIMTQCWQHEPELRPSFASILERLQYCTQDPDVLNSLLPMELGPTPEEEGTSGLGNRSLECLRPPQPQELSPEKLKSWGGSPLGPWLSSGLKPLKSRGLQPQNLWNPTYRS
T3 sequence (Q12866 21-999): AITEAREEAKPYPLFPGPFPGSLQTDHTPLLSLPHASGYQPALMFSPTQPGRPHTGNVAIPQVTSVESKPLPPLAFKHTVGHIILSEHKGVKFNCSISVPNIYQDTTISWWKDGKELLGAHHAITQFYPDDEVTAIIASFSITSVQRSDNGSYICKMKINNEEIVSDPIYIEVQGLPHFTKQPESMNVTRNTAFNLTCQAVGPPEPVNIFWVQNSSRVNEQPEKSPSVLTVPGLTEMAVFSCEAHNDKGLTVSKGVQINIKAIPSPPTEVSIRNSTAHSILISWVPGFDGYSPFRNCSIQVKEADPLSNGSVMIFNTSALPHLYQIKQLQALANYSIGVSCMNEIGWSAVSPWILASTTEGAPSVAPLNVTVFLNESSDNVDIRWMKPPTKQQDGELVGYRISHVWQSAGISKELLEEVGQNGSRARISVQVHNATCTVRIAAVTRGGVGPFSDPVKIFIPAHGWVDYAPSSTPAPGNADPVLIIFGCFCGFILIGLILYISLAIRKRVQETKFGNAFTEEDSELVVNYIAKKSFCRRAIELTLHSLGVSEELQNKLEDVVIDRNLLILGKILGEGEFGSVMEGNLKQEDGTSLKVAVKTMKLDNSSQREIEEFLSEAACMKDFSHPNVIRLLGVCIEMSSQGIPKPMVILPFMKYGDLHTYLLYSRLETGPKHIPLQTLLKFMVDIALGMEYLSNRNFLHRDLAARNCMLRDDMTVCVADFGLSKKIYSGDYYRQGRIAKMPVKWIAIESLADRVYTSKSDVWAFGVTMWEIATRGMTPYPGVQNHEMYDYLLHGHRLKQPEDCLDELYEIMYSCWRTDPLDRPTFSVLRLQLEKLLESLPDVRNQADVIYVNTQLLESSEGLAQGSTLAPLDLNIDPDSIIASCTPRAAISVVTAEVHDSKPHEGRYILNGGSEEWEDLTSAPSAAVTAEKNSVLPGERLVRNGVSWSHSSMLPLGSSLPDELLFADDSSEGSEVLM
T2 sequence (Q9UM73 19-1620): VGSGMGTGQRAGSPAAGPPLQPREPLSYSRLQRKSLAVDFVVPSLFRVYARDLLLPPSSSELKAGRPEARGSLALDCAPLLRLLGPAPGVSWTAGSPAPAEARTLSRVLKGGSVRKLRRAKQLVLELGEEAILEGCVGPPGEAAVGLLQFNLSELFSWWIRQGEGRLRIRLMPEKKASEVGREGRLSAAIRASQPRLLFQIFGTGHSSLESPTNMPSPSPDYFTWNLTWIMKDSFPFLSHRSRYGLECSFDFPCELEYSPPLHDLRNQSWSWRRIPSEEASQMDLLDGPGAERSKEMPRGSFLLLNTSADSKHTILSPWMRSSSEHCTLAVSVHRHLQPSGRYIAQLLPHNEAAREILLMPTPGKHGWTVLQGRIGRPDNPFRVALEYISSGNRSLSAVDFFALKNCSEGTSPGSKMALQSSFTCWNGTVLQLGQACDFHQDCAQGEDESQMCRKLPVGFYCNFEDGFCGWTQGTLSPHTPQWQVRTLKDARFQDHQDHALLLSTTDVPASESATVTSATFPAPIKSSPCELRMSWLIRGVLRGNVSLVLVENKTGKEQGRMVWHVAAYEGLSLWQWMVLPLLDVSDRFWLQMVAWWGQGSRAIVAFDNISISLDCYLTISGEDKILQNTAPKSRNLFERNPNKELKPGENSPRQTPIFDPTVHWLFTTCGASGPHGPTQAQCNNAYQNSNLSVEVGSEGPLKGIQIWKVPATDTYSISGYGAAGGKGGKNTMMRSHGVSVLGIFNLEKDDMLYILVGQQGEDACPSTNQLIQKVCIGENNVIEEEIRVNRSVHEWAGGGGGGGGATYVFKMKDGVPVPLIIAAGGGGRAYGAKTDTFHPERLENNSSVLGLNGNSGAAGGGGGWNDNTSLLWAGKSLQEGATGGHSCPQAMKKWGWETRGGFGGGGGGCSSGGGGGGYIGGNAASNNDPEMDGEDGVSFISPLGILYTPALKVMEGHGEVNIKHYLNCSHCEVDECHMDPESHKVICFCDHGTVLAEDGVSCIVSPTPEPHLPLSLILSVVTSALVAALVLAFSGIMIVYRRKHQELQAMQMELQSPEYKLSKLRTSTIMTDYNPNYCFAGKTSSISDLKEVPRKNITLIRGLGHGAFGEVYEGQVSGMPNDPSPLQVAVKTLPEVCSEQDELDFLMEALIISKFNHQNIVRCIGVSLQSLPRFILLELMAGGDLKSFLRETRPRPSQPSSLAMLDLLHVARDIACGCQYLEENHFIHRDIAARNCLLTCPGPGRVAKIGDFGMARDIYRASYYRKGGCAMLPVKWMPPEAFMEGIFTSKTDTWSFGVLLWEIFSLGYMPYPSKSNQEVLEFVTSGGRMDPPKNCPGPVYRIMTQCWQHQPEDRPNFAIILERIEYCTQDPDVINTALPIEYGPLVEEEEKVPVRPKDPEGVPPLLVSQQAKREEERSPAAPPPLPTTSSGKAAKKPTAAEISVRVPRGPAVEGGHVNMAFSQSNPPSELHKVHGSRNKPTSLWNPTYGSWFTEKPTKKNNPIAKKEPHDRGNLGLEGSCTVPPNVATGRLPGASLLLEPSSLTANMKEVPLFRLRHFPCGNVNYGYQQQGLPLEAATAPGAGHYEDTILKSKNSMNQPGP
T6 sequence (P04629 33-796): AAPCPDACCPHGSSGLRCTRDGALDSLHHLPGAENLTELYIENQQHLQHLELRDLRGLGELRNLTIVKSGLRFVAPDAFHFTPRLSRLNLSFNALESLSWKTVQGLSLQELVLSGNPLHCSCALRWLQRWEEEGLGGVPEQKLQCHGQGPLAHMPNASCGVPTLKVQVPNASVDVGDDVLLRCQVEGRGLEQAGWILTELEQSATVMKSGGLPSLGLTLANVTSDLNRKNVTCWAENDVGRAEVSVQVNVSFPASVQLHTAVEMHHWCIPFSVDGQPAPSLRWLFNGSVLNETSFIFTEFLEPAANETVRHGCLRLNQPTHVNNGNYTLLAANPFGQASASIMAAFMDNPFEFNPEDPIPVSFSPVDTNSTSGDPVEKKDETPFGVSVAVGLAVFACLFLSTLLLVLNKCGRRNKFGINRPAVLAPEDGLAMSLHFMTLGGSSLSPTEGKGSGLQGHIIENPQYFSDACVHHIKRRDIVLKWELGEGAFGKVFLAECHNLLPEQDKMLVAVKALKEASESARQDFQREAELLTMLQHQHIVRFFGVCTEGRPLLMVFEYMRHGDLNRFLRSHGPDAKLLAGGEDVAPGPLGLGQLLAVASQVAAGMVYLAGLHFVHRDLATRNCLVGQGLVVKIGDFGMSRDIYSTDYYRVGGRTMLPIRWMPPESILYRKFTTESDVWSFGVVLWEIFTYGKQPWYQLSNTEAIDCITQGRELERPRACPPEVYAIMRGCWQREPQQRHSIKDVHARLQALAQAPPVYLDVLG

CCc1nc(C(N)=O)c(Nc2ccc(N3CCC(N4CCN(C)CC4)CC3)c(OC)c2)nc1NC1CCOCC1 [gilteritinib]
inhibition at 0.001 µM [1]: > 50%
IC50 [2]: 0.35 nM
inhibition at 0.001 µM ([2]; 1 nM, single experiment): > 50%
inhibition at 0.001 µM [3]: > 50%
inhibition at 0.005 µM [4]: > 50%
inhibition at 0.005 µM [5]: > 50%
inhibition at 0.005 µM [6]: > 50%
inhibition at 0.005 µM [7]: > 50%
IC50 [8]: 420 nM
Phospho-FLT3 state in tumor ([9]; single oral 1 mg/kg, by 24 h): returned to the pre-treatment level
Decrease in phospho-FLT3 in tumor ([9]; single oral 10 mg/kg, 24 h period): maintained throughout the 24 h experimental period
Decrease of phosphorylated FLT3 in tumor compared with control ([9]; within 1 h after single oral 1–10 mg/kg): approximately 40%
Body weight [10]: not affected
Antitumor effect (tumor volume) ([11]; 10 mg/kg once-daily oral): showed antitumor efficacy
Antitumor effect (tumor volume) ([11]; 30 mg/kg once-daily oral): induced tumor regression
Antitumor effect (tumor volume) ([12]; 10 mg/kg once-daily oral): showed antitumor efficacy
Antitumor effect (tumor volume) ([12]; 30 mg/kg once-daily oral): induced tumor regression
